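1) Cells in 96-well plates. 2) Compound, 48 h, 5 concentrations. 3) Linear interpolation between surrounding doses. 4) Unreached endpoint = highest concentration. GI50 is the concentration that inhibits growth by half.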 Activity calls are given as the source filed them. Rule as the data show it: active = GI50 up to about 1.1 µM and inactive = higher.
What was measured:
Assay in all cases: NCI tumour cell line growth inhibition, 48 h
786-0 = test system: 786-0
A498 = test system: A498
A549 = test system: A549
ACHN = test system: ACHN
BT-549 = test system: BT-549
CAKI-1 = test system: CAKI-1
CCRF-CEM = test system: CCRF-CEM
COLO 205 = test system: COLO 205
DU-145 = test system: DU-145
HCC 2998 = test system: HCC 2998
HCT-116 = test system: HCT-116
HCT-15 = test system: HCT-15
HL-60 = test system: HL-60
HOP-62 = test system: HOP-62
HT-29 = test system: HT-29
Hs-578T = test system: Hs-578T
IGROV-1 = test system: IGROV-1
K562 = test system: K562
KM12 = test system: KM12
LOX IMVI = test system: LOX IMVI
M14 = test system: M14
MCF7 = test system: MCF7
MDA-MB-231 = test system: MDA-MB-231
MDA-MB-435 = test system: MDA-MB-435
MDA-N = test system: MDA-N
MOLT-4 = test system: MOLT-4
Malme-3M = test system: Malme-3M
NCI-H226 = test system: NCI-H226
NCI-H23 = test system: NCI-H23
NCI-H460 = test system: NCI-H460
NCI-H522 = test system: NCI-H522
NCI/ADR-RES = test system: NCI/ADR-RES
OVCAR-4 = test system: OVCAR-4
OVCAR-5 = test system: OVCAR-5
OVCAR-8 = test system: OVCAR-8
PC-3 = test system: PC-3
RPMI-8226 = test system: RPMI-8226
RXF 393 = test system: RXF 393
SF-268 = test system: SF-268
SF-295 = test system: SF-295
SF-539 = test system: SF-539
SK-MEL-28 = test system: SK-MEL-28
SK-MEL-2 = test system: SK-MEL-2
SK-MEL-5 = test system: SK-MEL-5
SK-OV-3 = test system: SK-OV-3
SN12C = test system: SN12C
SNB-19 = test system: SNB-19
SR = test system: SR
SW-620 = test system: SW-620
T47D = test system: T47D
TK-10 = test system: TK-10
U-251 = test system: U-251
UACC-257 = test system: UACC-257
UACC-62 = test system: UACC-62
UO-31 = test system: UO-31
EKVX = test system: EKVX
HOP-92 = test system: HOP-92
OVCAR-3 = test system: OVCAR-3
SNB-75 = test system: SNB-75

Cc1c(F)c(NC(=O)CN(C)C)c2c(=O)cc(-c3ccc(NC(=O)CN(C)C)c(F)c3)oc2c1F
GI50 (786-0): 15.9 µM (inactive) | GI50 (A498): 1.35 µM (inactive) | GI50 (A549): 18.6 µM (inactive) | GI50 (ACHN): 15.4 µM (inactive) | GI50 (BT-549): 17.9 µM (inactive) | GI50 (CAKI-1): 10.9 µM (inactive) | GI50 (CCRF-CEM): 21.5 µM (inactive) | GI50 (COLO 205): 10.9 µM (inactive) | GI50 (DU-145): 13.6 µM (inactive) | GI50 (HCC 2998): 0.678 µM (active) | GI50 (HCT-116): 12.9 µM (inactive) | GI50 (HCT-15): 14.5 µM | GI50 (HL-60): 17.1 µM (inactive) | GI50 (HOP-62): 16.6 µM (inactive) | GI50 (HT-29): 14.6 µM (inactive) | GI50 (Hs-578T): 26.9 µM (inactive) | GI50 (IGROV-1): 15.7 µM (inactive) | GI50 (K562): 13.6 µM (inactive) | GI50 (KM12): 13.4 µM (inactive) | GI50 (LOX IMVI): 14.9 µM (inactive) | GI50 (M14): 16.3 µM (inactive) | GI50 (MCF7): 13.4 µM (inactive) | GI50 (MDA-MB-231): 13.6 µM (inactive) | GI50 (MDA-MB-435): 12.6 µM (inactive) | GI50 (MDA-N): 16.4 µM (inactive) | GI50 (MOLT-4): 11.2 µM (inactive) | GI50 (Malme-3M): 26.3 µM (inactive) | GI50 (NCI-H226): 12.6 µM (inactive) | GI50 (NCI-H23): 17.3 µM (inactive) | GI50 (NCI-H460): 9.35 µM (inactive) | GI50 (NCI-H522): 17.5 µM (inactive) | GI50 (NCI/ADR-RES): 14.8 µM (inactive) | GI50 (OVCAR-4): 18.9 µM (inactive) | GI50 (OVCAR-5): 22.8 µM (inactive) | GI50 (OVCAR-8): 17.8 µM (inactive) | GI50 (PC-3): 16 µM (inactive) | GI50 (RPMI-8226): 16.8 µM (inactive) | GI50 (RXF 393): 12.8 µM (inactive) | GI50 (SF-268): 16.6 µM (inactive) | GI50 (SF-295): 15.5 µM (inactive) | GI50 (SF-539): 17.3 µM (inactive) | GI50 (SK-MEL-28): 21.5 µM (inactive) | GI50 (SK-MEL-2): 19.2 µM (inactive) | GI50 (SK-MEL-5): 15 µM (inactive) | GI50 (SK-OV-3): 16.8 µM (inactive) | GI50 (SN12C): 17.8 µM (inactive) | GI50 (SNB-19): 16 µM (inactive) | GI50 (SR): 1.5 µM (inactive) | GI50 (SW-620): 16.2 µM (inactive) | GI50 (T47D): 24.2 µM (inactive) | GI50 (TK-10): 7.57 µM (inactive) | GI50 (U-251): 14.2 µM (inactive) | GI50 (UACC-257): 21.9 µM (inactive) | GI50 (UACC-62): 19.1 µM (inactive) | GI50 (UO-31): 13.6 µM (inactive)

O=C1CC2(CCC(O)(c3ccco3)C(C(=O)c3ccco3)C2)C(=O)c2ccccc2N1 (stereo unspecified)
GI50 (A498): > 100 µM (inactive) | GI50 (A549): > 100 µM (inactive) | GI50 (BT-549): 92 µM (inactive) | GI50 (CAKI-1): > 100 µM (inactive) | GI50 (CCRF-CEM): > 10 µM (inactive) | GI50 (COLO 205): > 100 µM (inactive) | GI50 (DU-145): > 100 µM (inactive) | GI50 (EKVX): > 100 µM (inactive) | GI50 (HCC 2998): 55.8 µM (inactive) | GI50 (HCT-116): 88.7 µM (inactive) | GI50 (HCT-15): 53.8 µM | GI50 (HL-60): 27.3 µM (inactive) | GI50 (HOP-62): > 100 µM (inactive) | GI50 (HOP-92): 56.9 µM (inactive) | GI50 (HT-29): > 100 µM (inactive) | GI50 (Hs-578T): 55.1 µM (inactive) | GI50 (IGROV-1): 99.1 µM (inactive) | GI50 (K562): 50.1 µM (inactive) | GI50 (LOX IMVI): 48.6 µM (inactive) | GI50 (M14): 99.5 µM (inactive) | GI50 (MCF7): > 100 µM (inactive) | GI50 (MDA-MB-231): > 100 µM (inactive) | GI50 (MDA-MB-435): > 100 µM (inactive) | GI50 (MDA-N): > 100 µM (inactive) | GI50 (Malme-3M): > 100 µM (inactive) | GI50 (NCI-H226): > 100 µM (inactive) | GI50 (NCI-H23): > 100 µM (inactive) | GI50 (NCI-H460): 29.5 µM (inactive) | GI50 (NCI/ADR-RES): 64.6 µM (inactive) | GI50 (OVCAR-3): 84.7 µM (inactive) | GI50 (OVCAR-4): 17.3 µM (inactive) | GI50 (OVCAR-5): > 100 µM (inactive) | GI50 (OVCAR-8): 86.9 µM (inactive) | GI50 (PC-3): 54 µM (inactive) | GI50 (RXF 393): > 100 µM (inactive) | GI50 (SF-268): > 100 µM (inactive) | GI50 (SF-295): > 100 µM (inactive) | GI50 (SF-539): > 100 µM (inactive) | GI50 (SK-MEL-2): > 100 µM (inactive) | GI50 (SK-MEL-5): 51.4 µM (inactive) | GI50 (SK-OV-3): > 100 µM (inactive) | GI50 (SN12C): > 100 µM (inactive) | GI50 (SNB-75): 32.2 µM (inactive) | GI50 (SR): > 100 µM (inactive) | GI50 (SW-620): > 100 µM (inactive) | GI50 (T47D): 26.1 µM (inactive) | GI50 (TK-10): > 100 µM (inactive) | GI50 (U-251): > 100 µM (inactive) | GI50 (UACC-257): > 100 µM (inactive) | GI50 (UACC-62): > 100 µM (inactive) | GI50 (UO-31): 24.7 µM (inactive)
